# Patent publication US20230150951A1, “2,5- OR 2,6-DISUBSTITUTED HYDROQUINONE DERIVATIVES WITH AT LEAST ONE CARBOXY, SULFO OR AMIDO GROUP USEFUL AS MEDICAMENTS” (OM PHARMA SA, priority 2020, published 2023)
# Read-outs that look alike come from different tables or passages of the source.
# Tests used:
# Assay type in all cases: cell-based
# IL-6 = assay: Cytokine release after LPS induction on human whole blood: IL-6
# Description: (§1) Aim of this in vitro method is to assess compounds effects on release of a panel of cytokines from whole blood following lipopolysaccharide (LPS) induced inflammatory reaction. Whole blood was incubated with compounds for 1 h prior to LPS induction. Cytokine levels in blood were measured using a multiplex FACS-based panel.
# (§2) IC50 values determined for the tested compounds expressed in microM [μM] and the values for the inhibition of cytokines were listed for each compound.
# (§3) Effect on cytokines release after LPS induction was performed on the compounds dissolved in DMSO or H2O to reach 10-fold concentrated stock solutions and dissolved in culture media.
# (§4) Test system: Whole blood was removed from a single donor (into lithium heparin coated tubes; BD Vacutainer; 367886) and diluted 1:5 with RPMI 1640 (Thermo Fisher, 61870036). Within 30 minutes of sampling, blood was incubated with compounds for 1 h prior to LPS stimulation (O111:B4—Sigma L4391; 10 ng/ml final concentration). Stimulation continued under standard cell culture conditions (37° C. with 5% CO2) overnight (18 h), after which plates were centrifuged and supernatant removed and frozen at −80° C. until used for analyses.
# (§5) Dilution of test compounds: 10×concentrated solutions (concerning to the final assay concentrations) of each test compound were prepared with the appropriate solvent (in DMSO or in water). These 10× compound solutions (10 μl) were then added to 90 μl pre-diluted whole blood (whole blood: RPMI1640, 1:5) resulting in the final assay concentration.
# (§6) Test method: Diluted whole blood (80 μl) was pre-incubated with compounds (10 μl) to give final assay concentrations of 100, 30, 10, 3, 1, 0.3 and 0.1×10^−6M. Blood was incubated at 37° C. with 5% CO2 for 1 h. LPS was diluted in cell culture media to a concentration of […]; 10 μl was added to the whole blood to give a final concentration of 10 ng/ml. Plates were incubated at 37° C. for 18 h. Plates were centrifuged at 3,000 RPM for 5 minutes at 4° C. and supernatant removed and frozen at −80° C. until FACS analysis was carried out.
# (§7) Cytokine release was measured using a custom multiplex system (ELISA Genie) according to manufacturers instructions. Prepared samples were run on an Attune NxT flow cytometer (Thermo Fisher).
# (§8) Quantification of cytokine release inhibition: known concentration standards were run as part of the cytokine panel to allow quantification of each cytokine concentration in each sample. This was carried out using FCAP Array v3.0 software.
# (§9) Results: The dose response relationship on cytokine release following LPS induction of inflammatory response in whole blood was assessed for all compounds. IC50 values were determined for each compound for a panel of cytokines (GM-CSF, IFN-gamma, IL-1beta, IL-2, IL-4, IL-5, IL-6, IL-8, IL-9, IL-10, IL-12p40, IL-13, IL-17A, IL-17F, IL-18, IL-21, IL-22, IL-33, TGF-beta, TNF-alpha, TNF-beta).
# IL-4 = assay: Cytokine release after LPS induction on human whole blood: IL-4
# Description: as §1, §2, §3, §4, §5, §6, §7, §8, §9
# TNF-beta = assay: Cytokine release after LPS induction on human whole blood: TNFβ
# Description: as §1, §2, §3, §4, §5, §6, §7, §8, §9
# IL-12p70 = assay: Cytokine release after LPS induction on human whole blood: IL-12p70
# IL-2 = assay: Cytokine release after LPS induction on human whole blood: IL-2
# Description: as §1, §2, §3, §4, §5, §6, §7, §8, §9
# IL-13 = assay: Cytokine release after LPS induction on human whole blood: IL-13
# Description: as §1, §2, §3, §4, §5, §6, §7, §8, §9
# Human neutrophils = assay: Neutrophil adhesion under static conditions; conditions: fMLP-stimulated adhesion to fibrinogen; method: 40 μM and 80 μM, concentration of the value not stated
# In short: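 Donor buffy-coat neutrophils (3×10^6/ml, PBS with Ca/Mg, 10% FCS, pH 7.2) preincubated 30 min at 37° C with 40 μM or 80 μM compound, then stimulated 1 min at 37° C with 1 nM fMLP on fibrinogen-coated glass. Adherent cells fixed and counted by computer; mean ± SD, unpaired t-test.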
# IL-33 = assay: Cytokine release after LPS induction on human whole blood: IL-33
# Description: as §1, §2, §3, §4, §5, §6, §7, §8, §9
# IL-5 = assay: Cytokine release after LPS induction on human whole blood: IL-5
# Description: as §1, §2, §3, §4, §5, §6, §7, §8, §9
# IL-17F = assay: Cytokine release after LPS induction on human whole blood: IL-17F
# Description: as §1, §2, §3, §4, §5, §6, §7, §8, §9
# [1] = Homo sapiens, LPS 10 ng/ml, 18 h, read-out: Whole Blood: IL-6 IC50
# [2] = human whole blood, inhibition of LPS induced inflammation, read-out: IC50 IL-6
# [3] = Homo sapiens, LPS 10 ng/ml, 18 h, read-out: Whole Blood: IL-4 IC50
# [4] = human whole blood, inhibition of LPS induced inflammation, read-out: IC50 IL-4
# [5] = Homo sapiens, LPS 10 ng/ml, 18 h, read-out: Whole Blood: TNF β IC50
# [6] = human whole blood, inhibition of LPS induced inflammation, read-out: IC50 β
# [7] = Homo sapiens, LPS 10 ng/ml, 18 h, read-out: Whole Blood: IL-12p70 IC50
# [8] = human whole blood, inhibition of LPS induced inflammation, read-out: IC50 IL-12p70
# [9] = Homo sapiens, LPS 10 ng/ml, 18 h, read-out: Whole Blood: IL-2 IC50
# [10] = human whole blood, inhibition of LPS induced inflammation, read-out: IC50 IL-2
# [11] = Homo sapiens, LPS 10 ng/ml, 18 h, read-out: Whole Blood: IL-13 IC50
# [12] = human whole blood, inhibition of LPS induced inflammation, read-out: IC50 IL-13
# [13] = Homo sapiens, LPS 10 ng/ml, 18 h, read-out: Whole Blood: IL-33 IC50
# [14] = human whole blood, inhibition of LPS induced inflammation, read-out: IC50 IL-33
# [15] = Homo sapiens, LPS 10 ng/ml, 18 h, read-out: Whole Blood: IL-5 IC50
# [16] = human whole blood, inhibition of LPS induced inflammation, read-out: IC50 IL-5
# [17] = Homo sapiens, LPS 10 ng/ml, 18 h, read-out: Whole Blood: IL-17F IC50
# [18] = human whole blood, inhibition of LPS induced inflammation, read-out: IC50 IL-17F
SMILES,IC50 (IL-6; [1]),IC50 (IL-6; [2]),IC50 (IL-4; [3]),IC50 (IL-4; [4]),IC50 (TNF-beta; [5]),IC50 (TNF-beta; [6]),IC50 (IL-12p70; [7]),IC50 (IL-12p70; [8]),IC50 (IL-2; [9]),IC50 (IL-2; [10]),IC50 (IL-13; [11]),IC50 (IL-13; [12]),Neutrophil adhesion inhibition (Human neutrophils),IC50 (IL-33; [13]),IC50 (IL-33; [14]),IC50 (IL-5; [15]),IC50 (IL-5; [16]),IC50 (IL-17F; [17]),IC50 (IL-17F; [18])
"O=C(O)c1cc(O)c(C(=O)Nc2ccccc2S(=O)(=O)O)cc1O [Ia-001c, 2,5-dihydroxy-4-(2-sulfophenylaminocarbonyl)benzoic acid]",0.95 µM,0.95 µM,> 100 µM,100 µM,29.7 µM,29.7 µM,0.44 µM,0.44 µM,12.8 µM,12.8 µM,86.1 µM,86.1 µM,31.33%,> 100 µM,100 µM,> 100 µM,100 µM,89.7 µM,89.7 µM
"O=C(O)c1ccccc1CNC(=O)c1cc(O)cc(C(=O)O)c1O [IIa-053a, 3-(2-Carboxyphenylmethylaminocarbonyl)-2,5-dihydroxybenzoic acid]",2.2 µM,2.2 µM,> 100 µM,100 µM,91.5 µM,91.5 µM,0.27 µM,0.27 µM,1.67 µM,1.67 µM,29.9 µM,29.9 µM,20%,12.1 µM,12.1 µM,> 100 µM,100 µM,28.8 µM,28.8 µM
"O=C(O)c1cc(NC(=O)c2cc(O)c(C(=O)O)cc2O)cc(C(=O)O)c1 [Ia-015a, 5-(4-carboxy-2,5-dihydroxybenzamido)isophthalic acid]",0.77 µM,0.77 µM,> 100 µM,100 µM,0.3 µM,0.3 µM,0.12 µM,0.12 µM,7.08 µM,7.08 µM,0.15 µM,0.15 µM,17.38%,0.24 µM,0.24 µM,> 100 µM,100 µM,0.15 µM,0.15 µM
COC(=O)c1cc(OC(C)=O)cc(CS(=O)(=O)Cc2cc(OC(C)=O)cc(C(=O)OC)c2OC(C)=O)c1OC(C)=O [IVc-059a-E2-A4],0.99 µM,0.99 µM,> 100 µM,100 µM,19.4 µM,19.4 µM,51.4 µM,51.4 µM,10.4 µM,10.4 µM,18.7 µM,18.7 µM,87.5%,23.2 µM,23.2 µM,> 100 µM,100 µM,25.8 µM,25.8 µM
"O=C(O)c1cc(NC(=O)c2cc(O)cc(C(=O)Nc3ccc(O)c(C(=O)O)c3)c2O)ccc1O [IIc-007a, 5-(3-(3-carboxy-4-hydroxyphenylaminocarbonyl)-2,5-dihydroxybenzamido)-2-hydroxy benzoic acid]",0.05 µM,0.05 µM,> 100 µM,100 µM,0.29 µM,0.29 µM,3.37 µM,3.37 µM,12.8 µM,12.8 µM,0.25 µM,0.25 µM,64.61%,0.18 µM,0.18 µM,> 100 µM,100 µM,0.26 µM,0.26 µM
"O=C(O)c1cc(O)c(CN(Cc2cc(O)c(C(=O)O)cc2O)Cc2cc(O)c(C(=O)O)cc2O)cc1O [IIIc-061a, Tris(4-carboxy-2,5-dihydroxyphenylmethyl)amine]",0.18 µM,0.18 µM,> 100 µM,100 µM,0.81 µM,0.81 µM,37.2 µM,37.2 µM,> 100 µM,100 µM,0.31 µM,0.31 µM,58.69%,0.31 µM,0.31 µM,> 100 µM,100 µM,0.32 µM,0.32 µM
"CCOC(=O)c1cc(NC(=O)c2cc(O)c(C(=O)OCC)cc2O)cc(NC(=O)c2cc(O)c(C(=O)OCC)cc2O)c1 [Ib-010a-E3, ethyl 3,5-bis(2,5-dihydroxy-4-ethoxycarbonylbenzoylamino)benzoate]",0.24 µM,0.24 µM,> 100 µM,100 µM,38.2 µM,38.2 µM,0.84 µM,0.84 µM,36.2 µM,36.2 µM,33 µM,33 µM,79.5%,20 µM,20 µM,> 100 µM,100 µM,34.2 µM,34.2 µM
"O=C(O)c1cc(O)cc(CS(=O)(=O)Cc2cc(O)cc(C(=O)O)c2O)c1O [IVc-059a, 3-((2,5-Dihydroxy-3-carboxyphenyl)methylsulfonylmethyl)-2,5-dihydroxybenzoic acid]",0.11 µM,0.11 µM,> 100 µM,100 µM,0.33 µM,0.33 µM,42 µM,42 µM,21.2 µM,21.2 µM,> 100 µM,100 µM,10%,27.5 µM,27.5 µM,> 100 µM,100 µM,> 100 µM,100 µM
"O=C(O)c1cc(O)ccc1NC(=O)c1cc(O)cc(C(=O)Nc2ccc(O)cc2C(=O)O)c1O [IIc-009a, 2-(3-(2-carboxy-4-hydroxyphenylaminocarbonyl)-2,5-dihydroxybenzamido)-5-hydroxyl benzoic acid]",0.27 µM,0.27 µM,> 100 µM,100 µM,6.94 µM,6.94 µM,> 100 µM,100 µM,19.6 µM,19.6 µM,0.13 µM,0.13 µM,53.15%,0.29 µM,0.29 µM,> 100 µM,100 µM,0.13 µM,0.13 µM
